Test results published in paper PMC8955938, “c-Myc Protein Level Affected by Unsymmetrical Bisacridines Influences Apoptosis and Senescence Induced in HCT116 Colorectal and H460 Lung Cancer Cells” (International Journal of Molecular Sciences, 2022).
Where “and” joins values, the source holds several entries; their conditions need not be identical. Equal values may be shown once.

Experiments:
MRC-5 cells = assay: MTT cell growth inhibition assay, MRC-5; format: cell-based, human; conditions: for IC50: MRC-5 normal cells; for IC90: MRC5, MRC-5 normal cells
Description: To assess cell viability, the MTT assay was used. HCT116, H460, CCD 841 CoN and MRC-5 cells (20,000/well and 50,000/well for cancer and normal cells, respectively) were seeded in 24-well plates, and the following UAs were added at concentrations up to 10 μM: C-2028, C-2041, C-2045 and C-2053. Stock solutions (10 mM) were prepared in sterile water, as well as dilutions, also in water. After 72 h, 3-(4, 5-dimethylthiazol-2-yl)-2,5-diphenyltetrazolium bromide (MTT; 800 μg/well) was added for 3 h, then the formazan crystals were dissolved in DMSO, and absorbance was read at 540 nm. Each point was conducted at least 4 times, and data are expressed relative to controls. The concentration of the drug required to inhibit cells growth by 50 (IC50), 80 (IC80) and 90% (IC90) compared to untreated control cells was determined from the curves plotting survival as a function of dose.

H460 cells [1] = assay: Cell cycle analysis (PI, flow cytometry), H460; format: cell-based, human; conditions: H460, IC90 doses
Description: After drug treatment, trypsinized and floating cells (2 × 10^6) were pooled, washed twice with ice-cold PBS and fixed in 70% (v/v) ethanol overnight at −20 °C. Cells were stained with propidium iodide (PI) (BD Biosciences, San Jose, CA, USA) and monitored by FACS Accuri C6 (BD Biosciences, San Jose, CA, USA).

H460 cells [2] = assay: Accelerated senescence (SA-β-gal), H460; format: cell-based, human; conditions: H460, IC90 doses, 72 and 120 h
Description: The accelerated senescence examination was based on the analysis of pH 6.0-dependent β-galactosidase (SA-β-gal) expression together with senescence-related morphology, such as enlarged and flattened cells. HCT116 and H460 cells were seeded in 60 mm plates containing microscope coverslips and treated with UAs for up to 120 h. After the treatment, coverslips with attached cells were moved to 35 mm dishes, washed twice with PBS and fixed with […] for 5 min. The cells were then washed twice with PBS (pH 6.0) and incubated at pH 6.0 with X-gal (5-bromo-4-chloro-3-indolyl-β-D-[…], substrate for SA-β-gal) staining solution (1 mg/mL X-gal, 40 mmol/L citric acid/sodium phosphate, pH 6.0, 5 mmol/L potassium ferrocyanide, 5 mmol/L potassium ferricyanide, 150 mmol/L NaCl, 2 mmol/L MgCl2). Following overnight incubation at 37 °C, cells were washed twice with PBS and observed under a light microscopy (OLYMPUS BX60; magnification ×200).

[3] = system: MYC gene expression in HCT116 cells; assay: RT-PCR MYC expression in HCT116; format: cell-based, human; conditions: HCT116, IC90 doses, 120 h, 2^-ΔΔCt
Description: HCT116, H460, CCD 841 CoN and MRC-5 cells after treatment with UAs were collected, washed twice with ice-cold PBS and resuspended in […] of PBS. mRNA was isolated using High Pure RNA Isolation Kit according to the manufacturer’s instructions (Roche, Basel, Switzerland). Briefly, cells were lysed in lysis-binding buffer and transferred to a filter tube. Contaminating DNA was removed by 15 min incubation of the filter tube with DNase I solution. The filter tube was washed once with buffer I and twice with buffer II, and after centrifugation, total RNA was eluted using the elution buffer. RNA concentration was determined by NanoDrop One (Thermo Scientific); 1 µg of RNA was reverse transcribed using Transcriptor First Strand cDNA Synthesis Kit according to the manufacturer’s instructions (Roche) in 20 µL of reaction containing 1 µg of RNA, […] anchored-oligo(dT)18Primer, 8 mM MgCl2, 20 U of Protector RNase Inhibitor, deoxynucleotide mix (1 mM each) and 22 U of Transcriptor Reverse Transcriptase. The reverse transcription reaction was carried out for 30 min at 55 °C and stopped by heating to 85 °C for 5 min and placing on ice. The cDNA solution was stored at −20 °C until use. […] The relative expression level of MYC and KRAS was quantified using comparative method […]. The results were obtained from three independent experiments, each of which was analyzed at least twice.

HCT116 spheroids = system: HCT116 spheroids; design: method as in PMID 34684841; conditions: HCT116 3D spheroids; cited from earlier work
H460 spheroids = system: H460 spheroids; design: method as in PMID 34684841; conditions: H460 3D spheroids; cited from earlier work

CN(CCCNc1c2ccccc2nc2cccc([N+](=O)[O-])c12)CCCNc1ccc2ncn3c4ccccc4c(=O)c1c23 [Compound C-2028]
IC50 (MRC-5 cells; Homo sapiens, MRC5, 72 h): ~20 nM | IC90 (MRC-5 cells; Homo sapiens, 72 h): 2690 ± 640 nM | Poli (polyploid cells) (H460 cells [1]; 24 h): 1.70 ± 0.42% | cells in G1 (H460 cells [1]; 24 h): 32.92 ± 3.77% | cells in G2/M (H460 cells [1]; 24 h): 21.64 ± 4.23% | cells in S (H460 cells [1]; 24 h): 32.74 ± 2.09% | cells in Sub-G1 (H460 cells [1]; 24 h): 11.09 ± 3.80% | Poli (polyploid cells) (H460 cells [1]; 72 h): 2.11 ± 0.55% | cells in G1 (H460 cells [1]; 72 h): 37.15 ± 4.13% | cells in G2/M (H460 cells [1]; 72 h): 19.21 ± 6.60% | cells in S (H460 cells [1]; 72 h): 15.80 ± 2.33% | cells in Sub-G1 (H460 cells [1]; 72 h): 25.45 ± 7.20% | Poli (polyploid cells) (H460 cells [1]; 120 h): 4.03 ± 0.95% | cells in G1 (H460 cells [1]; 120 h): 29.87 ± 2.31% | cells in G2/M (H460 cells [1]; 120 h): 28.98 ± 3.64% | cells in S (H460 cells [1]; 120 h): 9.93 ± 2.46% | cells in Sub-G1 (H460 cells [1]; 120 h): 26.84 ± 1.92% and 26.8% | accelerated senescence (SA-β-gal blue staining) (H460 cells [2]): induced senescence to the highest extent

O=c1c2ccccc2n2cnc3ccc(NCCCN4CCN(CCCNc5c6ccccc6nc6cccc([N+](=O)[O-])c56)CC4)c1c32 [Compound C-2041]
IC50 (MRC-5 cells; Homo sapiens, MRC5, 72 h): 23 ± 4 nM | IC90 (MRC-5 cells; Homo sapiens, 72 h): 6160 ± 2060 nM | MYC expression, fold increase [3]: 3.3 fold | Poli (polyploid cells) (H460 cells [1]; 24 h): 1.78 ± 0.42% | cells in G1 (H460 cells [1]; 24 h): 31.30 ± 2.48% | cells in G2/M (H460 cells [1]; 24 h): 23.89 ± 5.34% | cells in S (H460 cells [1]; 24 h): 34.76 ± 4.78% | cells in Sub-G1 (H460 cells [1]; 24 h): 8.43 ± 3.14% | Poli (polyploid cells) (H460 cells [1]; 72 h): 2.52 ± 0.71% | cells in G1 (H460 cells [1]; 72 h): 42.86 ± 1.87% | cells in G2/M (H460 cells [1]; 72 h): 21.24 ± 2.69% | cells in S (H460 cells [1]; 72 h): 16.09 ± 2.94% | cells in Sub-G1 (H460 cells [1]; 72 h): 17.43 ± 2.40% | Poli (polyploid cells) (H460 cells [1]; 120 h): 2.30 ± 0.60% | cells in G1 (H460 cells [1]; 120 h): 35.08 ± 3.65% | cells in G2/M (H460 cells [1]; 120 h): 14.84 ± 4.06% | cells in S (H460 cells [1]; 120 h): 11.59 ± 1.16% | cells in Sub-G1 (H460 cells [1]; 120 h): 36.47 ± 3.18% and 36.5% | inhibition of spheroids growth (HCT116 spheroids): to the least extent | inhibition of spheroids growth (H460 spheroids): to the least extent

Cc1ccc([N+](=O)[O-])c2c(NCCCN(C)CCCNc3ccc4ncn5c6ccc(O)cc6c(=O)c3c45)c3ccccc3nc12 [Compound C-2045]
IC50 (MRC-5 cells; Homo sapiens, MRC5, 72 h): ~300 nM | IC90 (MRC-5 cells; Homo sapiens, 72 h): 6130 ± 2350 nM | IC50 (MRC-5 cells; 72 h): 218 ± 37 nM | MYC expression, fold increase [3]: 5.3 fold | Poli (polyploid cells) (H460 cells [1]; 24 h): 1.78 ± 0.33% | cells in G1 (H460 cells [1]; 24 h): 32.25 ± 3.01% | cells in G2/M (H460 cells [1]; 24 h): 28.15 ± 2.14% | cells in S (H460 cells [1]; 24 h): 26.56 ± 3.44% | cells in Sub-G1 (H460 cells [1]; 24 h): 9.84 ± 4.46% | Poli (polyploid cells) (H460 cells [1]; 72 h): 2.05 ± 0.60% | cells in G1 (H460 cells [1]; 72 h): 39.94 ± 4.65% | cells in G2/M (H460 cells [1]; 72 h): 20.87 ± 5.18% | cells in S (H460 cells [1]; 72 h): 18.53 ± 5.99% | cells in Sub-G1 (H460 cells [1]; 72 h): 18.66 ± 3.61% | Poli (polyploid cells) (H460 cells [1]; 120 h): 2.28 ± 1.33% | cells in G2/M (H460 cells [1]; 120 h): 21.49 ± 5.96% | cells in S (H460 cells [1]; 120 h): 9.03 ± 1.37% | cells in Sub-G1 (H460 cells [1]; 120 h): 42.42 ± 8.29% and 42.4%

Cc1ccc([N+](=O)[O-])c2c(NCCCN(C)CCCNc3ccc4ncn5c6ccccc6c(=O)c3c45)c3ccccc3nc12 [Compound C-2053]
IC50 (MRC-5 cells; Homo sapiens, MRC5, 72 h): 120 ± 26 nM | IC90 (MRC-5 cells; Homo sapiens, 72 h): 3800 ± 1340 nM | Poli (polyploid cells) (H460 cells [1]; 24 h): 2.76 ± 0.30% | cells in G1 (H460 cells [1]; 24 h): 30.44 ± 2.27% | cells in G2/M (H460 cells [1]; 24 h): 27.37 ± 2.20% | cells in S (H460 cells [1]; 24 h): 33.77 ± 3.66% | cells in Sub-G1 (H460 cells [1]; 24 h): 6.28 ± 1.52% | Poli (polyploid cells) (H460 cells [1]; 72 h): 1.73 ± 0.52% | cells in G1 (H460 cells [1]; 72 h): 36.08 ± 5.84% | cells in G2/M (H460 cells [1]; 72 h): 24.96 ± 3.05% | cells in S (H460 cells [1]; 72 h): 14.09 ± 2.46% | cells in Sub-G1 (H460 cells [1]; 72 h): 22.37 ± 2.06% | Poli (polyploid cells) (H460 cells [1]; 120 h): 2.39 ± 1.17% | cells in G2/M (H460 cells [1]; 120 h): 19.77 ± 6.06% | cells in S (H460 cells [1]; 120 h): 10.78 ± 1.76% | cells in Sub-G1 (H460 cells [1]; 120 h): 41.51 ± 5.77% and 41.5% | accelerated senescence (SA-β-gal blue staining) (H460 cells [2]): least profound changes | inhibition of spheroids growth (HCT116 spheroids): to the greatest extent | inhibition of spheroids growth (H460 spheroids): to the greatest extent
